Source: ChEMBL document CHEMBL1150893, “Grenadadiene and grenadamide, cyclopropyl-containing fatty acid metabolites from the marine cyanobacterium Lyngbya majuscula” (J Nat Prod, 1998)
Values after ≈ are worked out from the molar mass of the structure shown.

Legend:
[1] = Binding affinity to cannabinoid receptor in rat brain membrane assessed as cannabinomimetic activity; type: cell membranes
[2] = Toxicity in Artemia salina; type: organism-based; settings: in vivo, read-out: LD50 (the source's name)

Structure (SMILES): CCCCCCC[C@@H]1C[C@H]1CCC(=O)NCCc1ccccc1 [GRENADAMIDE C]
- Ki [1]: 4.7 µM
- LC50 [2]: 5 µg/mL (≈ 15.8 µM)

Structure (SMILES): CCCCCCC[C@@H]1C[C@H]1CCC(=O)O/C=C\C=C\COC(C)=O [DEBROMOGRENADINE]
- Ki [1]: 4.7 µM
- LC50 [2]: 5 µg/mL (≈ 14.9 µM)
